According to article PMC4910235, “Selenophene and thiophene-core estrogen receptor ligands that inhibit motility and development of parasitic stages of Haemonchus contortus” (Parasites & Vectors, 2016):
pEC50, pIC50: −log10 of the molar value. Entries after “also recorded” stand apart in the source; their conditions may differ.

Key:
ERα = molecular target: T1, ERα (Homo sapiens, UniProt P03372); experiment: 3×ERE-luciferase reporter gene assay in HEK 293 T cells, ERα; format: cell-based
T1 construct: expressed in transfected cells; host or cells: HEK 293 T
T1 sequence (P03372 1-595): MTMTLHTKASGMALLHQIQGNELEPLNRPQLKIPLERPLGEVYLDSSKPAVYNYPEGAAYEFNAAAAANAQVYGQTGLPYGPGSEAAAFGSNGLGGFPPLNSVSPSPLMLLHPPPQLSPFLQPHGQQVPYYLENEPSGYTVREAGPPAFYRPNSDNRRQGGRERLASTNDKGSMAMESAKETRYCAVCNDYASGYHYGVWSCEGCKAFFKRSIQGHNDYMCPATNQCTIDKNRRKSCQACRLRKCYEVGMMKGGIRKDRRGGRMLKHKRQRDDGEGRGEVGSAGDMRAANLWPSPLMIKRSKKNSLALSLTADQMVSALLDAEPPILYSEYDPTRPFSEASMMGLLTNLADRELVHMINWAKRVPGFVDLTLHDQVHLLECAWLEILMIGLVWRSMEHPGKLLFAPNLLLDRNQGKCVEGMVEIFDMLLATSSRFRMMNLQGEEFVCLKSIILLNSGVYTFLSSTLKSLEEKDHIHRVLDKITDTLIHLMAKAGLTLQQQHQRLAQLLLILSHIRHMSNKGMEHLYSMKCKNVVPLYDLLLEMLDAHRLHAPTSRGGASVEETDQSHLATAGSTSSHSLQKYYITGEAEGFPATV
Procedure: (§1) Cells in phenol red-free DMEM with 10 % FBS were plated. […] The next day, the cells were treated with increasing doses of ER ligands diluted in phenol red-free DMEM with 10 % FBS. After 24 h, luciferase activity was measured using the dual-luciferase reporter assay system (Promega, Fitchburg, USA) performed according to the manufacturer’s protocol.

ERβ = molecular target: T2, ERβ (Homo sapiens, UniProt Q92731); experiment: 3×ERE-luciferase reporter gene assay in HEK 293 T cells, ERβ; format: cell-based
T2 construct: expressed in transfected cells; host or cells: HEK 293 T
T2 sequence (Q92731 whole entry): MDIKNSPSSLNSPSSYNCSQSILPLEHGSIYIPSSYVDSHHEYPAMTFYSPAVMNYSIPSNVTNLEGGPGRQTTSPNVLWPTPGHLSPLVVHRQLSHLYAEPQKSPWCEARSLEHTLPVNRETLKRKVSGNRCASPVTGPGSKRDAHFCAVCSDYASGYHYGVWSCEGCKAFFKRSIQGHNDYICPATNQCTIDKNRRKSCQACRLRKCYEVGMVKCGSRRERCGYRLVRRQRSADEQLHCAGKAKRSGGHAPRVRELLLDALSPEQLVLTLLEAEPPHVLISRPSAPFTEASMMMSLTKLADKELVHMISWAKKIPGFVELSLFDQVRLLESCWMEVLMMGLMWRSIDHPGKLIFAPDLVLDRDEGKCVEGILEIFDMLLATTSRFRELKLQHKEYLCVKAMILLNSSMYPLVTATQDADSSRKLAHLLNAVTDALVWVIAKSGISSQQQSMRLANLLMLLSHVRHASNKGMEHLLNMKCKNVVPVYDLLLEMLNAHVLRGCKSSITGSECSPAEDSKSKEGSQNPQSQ
Procedure: as §1

[1] = molecular target: human ERβ ligand binding domain (Homo sapiens, UniProt Q92731); experiment: Competitive fluorometric receptor-binding assay, ERβ; details: estradiol = 100 %; fluorescence polarisation, coumestrol tracer
Chain of human ERβ ligand binding domain (Q92731 264-498 limits assumed): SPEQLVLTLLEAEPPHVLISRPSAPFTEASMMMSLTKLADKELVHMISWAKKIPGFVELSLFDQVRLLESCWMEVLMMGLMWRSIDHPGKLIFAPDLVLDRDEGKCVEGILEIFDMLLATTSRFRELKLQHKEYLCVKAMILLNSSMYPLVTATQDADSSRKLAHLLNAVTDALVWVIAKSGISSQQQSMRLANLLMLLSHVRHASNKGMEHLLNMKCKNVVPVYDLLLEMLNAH
Procedure: (§2) Relative binding affinities were determined by a competitive fluorometric binding assay, as described previously. Briefly, 40 nM fluorescence tracer (coumestrol, Sigma-Aldrich) and 0.8 μM purified human ERα or ERβ ligand binding domain were diluted in 100 mM potassium phosphate buffer (pH 7.4), containing 100 μg/ml bovine γ-globulin (Sigma-Aldrich), and an equal volume of test compound was added. Incubation was for 2 h at 25 °C. The fluorescence polarisation values were measured. […] The values given are the average ± range of two independent determinations. IC50 values were calculated using a published formula [29].

[2] = molecular target: T3, human ERα ligand binding domain (Homo sapiens, UniProt P03372); experiment: Competitive fluorometric receptor-binding assay, ERα; details: estradiol = 100 %; fluorescence polarisation, coumestrol tracer
T3 sequence (P03372 311-547 limits assumed): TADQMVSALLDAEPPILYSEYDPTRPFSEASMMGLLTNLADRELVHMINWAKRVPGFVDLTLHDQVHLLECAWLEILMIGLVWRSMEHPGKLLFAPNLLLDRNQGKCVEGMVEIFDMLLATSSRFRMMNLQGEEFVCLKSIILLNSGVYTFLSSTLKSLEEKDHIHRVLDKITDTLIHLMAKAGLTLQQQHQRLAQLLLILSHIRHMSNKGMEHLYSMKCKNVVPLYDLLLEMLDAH
Procedure: as §2

[3] = percentage of 10^-8 M 17β-estradiol, mean ± SD

Row | SMILES | profile on ERα (agonist/antagonist) (ERα; luciferase reporter) | pIC50 (ERα; against 10^-8 M E2, read-out: Antagonist mode ERα IC50) | pEC50 (ERα; doses up to 10^-5 M, read-out: Agonist mode ERα EC50) | Agonist mode ERα Efficacy (%E2) (ERα; [3]) | Antagonist mode ERα Efficacy (%E2) (ERα; [3]) | pIC50 (ERβ; against 10^-8 M E2, read-out: Antagonist mode ERβ IC50) | pEC50 (ERβ; doses up to 10^-5 M, read-out: Agonist mode ERβ EC50) | profile on ERβ (agonist/antagonist) (ERβ; luciferase reporter) | Antagonist mode ERβ Eff (%E2) (ERβ; [3]) | relative binding affinity (RBA) ERβ [1] | relative binding affinity (RBA) ERα [2]
1 | Cc1cc(O)ccc1-c1ccc(-c2ccc(O)cc2F)s1 [MJ-22] | super-agonist; also recorded: agonists | – | – | – | – | – | – | – | – | – | –
2 | Oc1ccc(-c2ccc(-c3ccc(O)cc3Cl)[se]2)c(Cl)c1 [WZY-2] | – | < 5.00 | < 5.00 | -21 ± 13 %E2 | 73 ± 8 %E2 | 5.52 | < 5.00 | antagonist | 13.9 ± 5.3 %E2 | 12.7% | 6.11%
